Patent publication US11833238B2, “Topical testosterone (T) for promoting hair growth-containing formulations” (priority 2012, dated 2023)

How the values were obtained:
[1] = powder; cited from earlier work
eyelash hair growth = experiment: appearance of lashes and hair around the eyes of glaucoma patients administering bimatoprost in only one eye (slit lamp biomicroscope); assay type: in vivo, human; conditions: 0.03% ophthalmic solution, more than 3 months, treated vs control eye
Experimental: A study is initiated to systematically evaluate the appearance of lashes and hair around the eyes of patients who are administering bimatoprost in only one eye. The study involves 10 subjects, 5 male, 5 female, average age 70 years, (ranging from 50-94 years). All patients have glaucoma. Each subject is treated daily by the topical application of one drop of bimatoprost at a dosage of 1.5 µg/ml/eye/day (0.03%, by weight, ophthalmic solution, sold under the names Lumigan® and Latisse® by Allergan, Irvine, Calif., U.S.A.) to the region of one eye by instilling the drop onto the surface of the eye. The region of the fellow control eye is not treated with bimatoprost and served as a control.
In the course of treatment with eye drops, there is typically spontaneous tearing, and excess fluid from the drops and associated tears gathers at the lid margins. In the course of wiping the drug containing fluid from the lid margins and adjacent lid, a thin film of the fluid is routinely spread to contact the adjacent skin of the lid area.
The study is limited to subjects who have administered bimatoprost to one eye for more than 3 months. The mean duration of exposure to bimatoprost prior to assessing the parameter of lash growth between the control and study eye is 129 days (range 90-254 days). Observations are made under high magnification at the slit lamp biomicroscope. Documentation of differences between the control and treatment areas is accomplished using a camera specially adapted for use with the slit lamp biomicroscope. The results of the observations are as follows: Length of lashes: Increased length of eyelashes is regularly observed on the side treated with bimatoprost. The difference in length varies from approximately 10% to as much as 30%. […] In areas where there are a large number of lashes in the control eye, the increased number of lashes in the bimatoprost-treated eye gave the lashes on the treated side a more thickly matted overall appearance. […] These long, thick lash-like hairs were present in the central portion of the lids of several patients in a linear arrangement just above the lash line. Hairs are present at similar locations in the control eyes but are by contrast thinner or more fine in appearance, have less luster and pigment and are more flat against the skin of the lid typical of vellus or intermediate hairs. In several patients, lash-like terminal hairs grow luxuriantly in the medial canthal area in the treated eye. In the corresponding control eye, vellus hairs are seen at the same location. Lash-like hairs are also present in the lateral canthal area of the treated eye but not the control eye in several subjects. […]

CCNC(=O)CCC/C=C\C[C@@H]1[C@@H](/C=C/[C@@H](O)CCc2ccccc2)[C@H](O)C[C@@H]1O [bimatoprost, (Z)-7-[(1R,2R,3R,5S)-3,5Dihydroxy-2-[(1E,3S)-3-hydroxy-5-phenyl-1-pentenyl]cyclopentyl]-5-N-ethylheptenamide]
solubility in ethyl alcohol [1]: very soluble | solubility in methyl alcohol [1]: very soluble | solubility in water [1]: slightly soluble | Auxiliary lash-like hair growth (eyelash hair growth): apparent increase in lash-like hair in transitional areas adjacent to areas of normal lash distribution | Number of lashes (eyelash hair growth): Increased numbers of lashes are observed in the treated eye of each patient | Perpendicular angulation of hairs (eyelash hair growth): leave the surface of the skin at a more acute angle | growth of vellus hair on lids (eyelash hair growth): vellus hairs are increased in number, appear more robust and are much longer and thicker in treated than in control eyes
